Consider 5 cell lines from the supplement of paper PMC10307832.

What all share (assay): relative viability (nuclei count vs DMSO), 5 days (fraction); higher = more cells survive
Compound in experiment [1]: Cc1ccc(NC(=O)c2ccc(CN3CCN(C)CC3)cc2)cc1Nc1nccc(-c2cccnc2)n1 [Imatinib] + COc1cccc2cc(-c3nc([C@H]4CC[C@H](C(=O)O)CC4)n4ncnc(N)c34)[nH]c12 [OSI-027] (partner 0.5 µM)
In a few lines: (§1)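 For relative viability, nuclei counts in treated wells were divided by those in vehicle wells. Lung cancer cell lines had been pin-tool dosed in 1536-well plates the day after seeding and cultured for 5 days, then fixed and stained in one step (final 0.05% Triton X-100, 1% formaldehyde, 1 ug/ml Hoechst) and imaged at 4×. Doses were one drug alone or a fixed anchor-drug dose plus five library-drug doses (not always all listed) in √10 steps, and values are duplicate-plate medians.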

Compound in experiment [2]: Cc1ccc(NC(=O)c2ccc(CN3CCN(C)CC3)cc2)cc1Nc1nccc(-c2cccnc2)n1 [Imatinib] + NC(=O)Nc1cc(-c2cccc(F)c2)sc1C(=O)N[C@H]1CCCNC1 [AZD7762] (partner 0.2 µM)
In a few lines:
as §1

Compound in experiment [3]: Cc1ccc(NC(=O)c2ccc(CN3CCN(C)CC3)cc2)cc1Nc1nccc(-c2cccnc2)n1 [Imatinib] + Nc1ncn([C@H]2C[C@H](O)[C@@H](CO)O2)c(=O)n1 [Decitabine] (partner 2 µM)
The gist of the method:
as §1

Compound in experiment [4]: Cc1ccc(NC(=O)c2ccc(CN3CCN(C)CC3)cc2)cc1Nc1nccc(-c2cccnc2)n1 [Imatinib] + O=C(c1cc(Cc2n[nH]c(=O)c3ccccc23)ccc1F)N1CCN(C(=O)C2CC2)CC1 [Olaparib] (partner 8 µM)
The gist of the method:
as §1

For LK-2, the relative viability was 0.178 in experiment [1] (first compound 0.02 µM); 0.207 in experiment [1] (first compound 0.06325 µM); 0.151 in experiment [1] (first compound 0.2 µM); 0.217 in experiment [1] (first compound 0.6325 µM); 0.212 in experiment [1] (first compound 2 µM); 0.343 in experiment [2] (first compound 0.02 µM). The relative viability was 0.442 in experiment [2] (first compound 0.06325 µM); 0.335 in experiment [2] (first compound 0.2 µM); 0.33 in experiment [2] (first compound 2 µM); 0.336 in experiment [3] (first compound 0.02 µM); 0.323 in experiment [3] (first compound 0.06325 µM); 0.237 in experiment [3] (first compound 0.2 µM). The relative viability in experiment [3] (first compound 2 µM) stood at 0.183; in experiment [4] (first compound 0.02 µM) it was 0.725; in experiment [4] (first compound 0.06325 µM), 0.629; in experiment [4] (first compound 0.2 µM), 0.711; in experiment [4] (first compound 2 µM), 0.92.

In the case of LOU-NH91, the relative viability in experiment [1] (first compound 0.02 µM) was 0.759; in experiment [1] (first compound 0.06325 µM), 0.708; in experiment [1] (first compound 0.2 µM), 0.745; in experiment [1] (first compound 0.6325 µM), 0.699; in experiment [1] (first compound 2 µM) it was 0.658; in experiment [2] (first compound 0.02 µM), 0.784. The relative viability in experiment [2] (first compound 0.06325 µM) was 0.829; in experiment [2] (first compound 0.2 µM), 0.81; in experiment [2] (first compound 0.6325 µM), 0.809; in experiment [2] (first compound 2 µM), 0.749; in experiment [3] (first compound 0.02 µM), 0.793; in experiment [3] (first compound 0.06325 µM) it was 0.814. Further, the relative viability in experiment [3] (first compound 0.2 µM) was determined as 0.795; in experiment [3] (first compound 0.6325 µM) it was 0.813; in experiment [3] (first compound 2 µM), 0.767; in experiment [4] (first compound 0.02 µM), 1.04; in experiment [4] (first compound 0.06325 µM) it was 0.982; in experiment [4] (first compound 0.6325 µM) it was 0.879. The relative viability in experiment [4] (first compound 2 µM) is 0.894.

Consider LU99A, for which the relative viability was found to be 0.315 in experiment [1] (first compound 0.02 µM); 0.285 in experiment [1] (first compound 0.06325 µM); 0.301 in experiment [1] (first compound 0.2 µM); 0.323 in experiment [1] (first compound 0.6325 µM); 0.28 in experiment [1] (first compound 2 µM); 0.437 in experiment [2] (first compound 0.02 µM). In addition, the relative viability in experiment [2] (first compound 0.06325 µM) was determined as 0.274; in experiment [2] (first compound 0.2 µM), 0.336; in experiment [2] (first compound 0.6325 µM), 0.254; in experiment [2] (first compound 2 µM), 0.405; in experiment [3] (first compound 0.02 µM) it was 0.986; in experiment [3] (first compound 0.06325 µM), 0.827. The relative viability in experiment [3] (first compound 0.2 µM) worked out at 0.824; in experiment [3] (first compound 0.6325 µM), 0.812; in experiment [3] (first compound 2 µM), 0.903; in experiment [4] (first compound 0.02 µM), 0.272; in experiment [4] (first compound 0.06325 µM), 0.254; in experiment [4] (first compound 0.2 µM), 0.235. The relative viability in experiment [4] (first compound 0.6325 µM) is 0.29; in experiment [4] (first compound 2 µM), 0.274.

Turning to LXF-289, the relative viability is 0.791 in experiment [1] (first compound 0.02 µM); 0.556 in experiment [1] (first compound 0.06325 µM); 0.814 in experiment [1] (first compound 0.2 µM); 0.754 in experiment [1] (first compound 0.6325 µM); 0.724 in experiment [1] (first compound 2 µM); 1.13 in experiment [2] (first compound 0.02 µM). The relative viability was 1.25 in experiment [2] (first compound 0.2 µM); 1.04 in experiment [2] (first compound 0.6325 µM); 1.09 in experiment [2] (first compound 2 µM); 0.387 in experiment [3] (first compound 0.02 µM); 0.407 in experiment [3] (first compound 0.2 µM); 0.391 in experiment [3] (first compound 0.6325 µM). In addition, the relative viability in experiment [3] (first compound 2 µM) was 0.405; in experiment [4] (first compound 0.02 µM), 1.1; in experiment [4] (first compound 0.2 µM), 1.35; in experiment [4] (first compound 2 µM), 1.13.

On to NCI-H520, for which the relative viability in experiment [1] (first compound 0.02 µM) amounted to 0.214; in experiment [1] (first compound 0.06325 µM), 0.255; in experiment [1] (first compound 0.2 µM), 0.242; in experiment [1] (first compound 0.6325 µM) it was 0.224; in experiment [1] (first compound 2 µM), 0.273; in experiment [3] (first compound 0.02 µM), 0.531. Moreover, the relative viability in experiment [3] (first compound 0.06325 µM) was 0.514; in experiment [3] (first compound 0.2 µM) it was 0.532; in experiment [3] (first compound 0.6325 µM) it was 0.508; in experiment [3] (first compound 2 µM), 0.487; in experiment [4] (first compound 0.02 µM), 0.368; in experiment [4] (first compound 0.06325 µM) it was 0.356. The relative viability in experiment [4] (first compound 0.2 µM) was found to be 0.305; in experiment [4] (first compound 0.6325 µM), 0.301; in experiment [4] (first compound 2 µM), 0.371.
